# Measured values: patent publication US6858638B2, “Substituted indazoles, compositions containing them, method of production and use” (Aventis Pharma S.A., priority 2002, dated 2005)
# Key:
# human FAK = biological target: T1, human FAK (Homo sapiens, UniProt Q05397); assay: FAK autophosphorylation inhibition, time resolved fluorescence (HTRF) assay; type: biochemical; conditions: for inhibition at 30 µM: 30 μM (values marked *), read-out: FAK % inhib at 30* μM; for inhibition at 10 µM: 10 μM (values without asterisk), read-out: FAK % inhib at 10 μM
# T1 construct: The complete cDNA of human FAK; made in house; host or cells: baculovirus expression system (vector pFastBac HTc)
# Summary of the method: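 His-tagged full-length human FAK from baculovirus (6.6 µg/ml) self-phosphorylates with 15 µM ATP in HEPES pH 7.2, MgCl2, vanadate, 1 h at 37 °C. HTRF detection (Eu-anti-phosphotyrosine / XL665-anti-His), 665/620 nm ratio; % inhibition vs untreated control, duplicate mean.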
# human Tie2 = biological target: T2, human Tie2 (Homo sapiens, UniProt Q02763); assay: Tie2 phosphorylation of PLC, FlashPlate radioactivity assay; type: biochemical; conditions: read-out: TIE2 % inhib at 10 μM
# T2 construct: amino acids of the intracellular domain 776-1124; made in house; host or cells: baculovirus expression system (vector pFastBacGT)
# Method: The coding sequence of human Tie2 corresponding to the amino acids of the intracellular domain 776-1124 was generated by PCR using the cDNA isolated from human placenta as model. This sequence was introduced into a baculovirus expression vector pFastBacGT in the form of a GST fusion protein.
# The inhibitory effect of the molecules is determined in an assay of phosphorylation of PLC by Tie2 in the presence of GST-Tie2 purified to approximately 80% homogeneity. The substrate is composed of the SH2-SH3 fragments of PLC exprressed in the form of a GST fusion protein.
# The kinase activity of Tie2 is measured in a 20 mM MOPS buffer, pH 7.2, containing 10 mM MgCl2, 10 mM MnCl2, 1 mM DTT and 10 mM of glycerophosphate. A reaction mixture composed of 70 μl of kinase buffer containing 100 ng of GST-Tie2 enzyme per well is placed in a FlashPlate 96-well plate kept on ice. 10 μl of the test molecule diluted in DMSO at a maximum concentration of 10% are then added. For a given concentration, each measurement is carried out in quadruplicate. The reaction is initiated by adding 20 μl of solution containing 2 μg of GST-PLC, 2 μM of cold ATP and 1 μCi of ^33P[ATP]. After incubation for 1 hour at 37° C., the reaction is stopped by adding 1 volume (100 μl) of 200 mM EDTA. After removing the incubation buffer, the wells are washed three times with 300 μl of PBS. The radioactivity is measured on a Wallac MicroBeta 1450.
# The inhibition of the Tie2 activity is calculated and expressed as percentage inhibition compared to the control activity determined in the absence of compound.
# c-Src protein = assay: Src kinase phosphorylation of biotinylated cdc2 substrate, fluorescence (DELFIA); type: biochemical, human
# Summary of the method: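 Recombinant human c-Src (SH3, SH2 and catalytic domains; baculovirus) phosphorylates biotinylated cdc2 substrate in 50 mM Tris, 10 mM MgCl2 with 10 μM ATP, 60 min at 30° C. Product captured on streptavidin and detected by Europium-anti-phosphotyrosine fluorescence (DELFIA). Reported as % inhibition of no-compound control.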
# T1 sequence (Q05397 whole entry): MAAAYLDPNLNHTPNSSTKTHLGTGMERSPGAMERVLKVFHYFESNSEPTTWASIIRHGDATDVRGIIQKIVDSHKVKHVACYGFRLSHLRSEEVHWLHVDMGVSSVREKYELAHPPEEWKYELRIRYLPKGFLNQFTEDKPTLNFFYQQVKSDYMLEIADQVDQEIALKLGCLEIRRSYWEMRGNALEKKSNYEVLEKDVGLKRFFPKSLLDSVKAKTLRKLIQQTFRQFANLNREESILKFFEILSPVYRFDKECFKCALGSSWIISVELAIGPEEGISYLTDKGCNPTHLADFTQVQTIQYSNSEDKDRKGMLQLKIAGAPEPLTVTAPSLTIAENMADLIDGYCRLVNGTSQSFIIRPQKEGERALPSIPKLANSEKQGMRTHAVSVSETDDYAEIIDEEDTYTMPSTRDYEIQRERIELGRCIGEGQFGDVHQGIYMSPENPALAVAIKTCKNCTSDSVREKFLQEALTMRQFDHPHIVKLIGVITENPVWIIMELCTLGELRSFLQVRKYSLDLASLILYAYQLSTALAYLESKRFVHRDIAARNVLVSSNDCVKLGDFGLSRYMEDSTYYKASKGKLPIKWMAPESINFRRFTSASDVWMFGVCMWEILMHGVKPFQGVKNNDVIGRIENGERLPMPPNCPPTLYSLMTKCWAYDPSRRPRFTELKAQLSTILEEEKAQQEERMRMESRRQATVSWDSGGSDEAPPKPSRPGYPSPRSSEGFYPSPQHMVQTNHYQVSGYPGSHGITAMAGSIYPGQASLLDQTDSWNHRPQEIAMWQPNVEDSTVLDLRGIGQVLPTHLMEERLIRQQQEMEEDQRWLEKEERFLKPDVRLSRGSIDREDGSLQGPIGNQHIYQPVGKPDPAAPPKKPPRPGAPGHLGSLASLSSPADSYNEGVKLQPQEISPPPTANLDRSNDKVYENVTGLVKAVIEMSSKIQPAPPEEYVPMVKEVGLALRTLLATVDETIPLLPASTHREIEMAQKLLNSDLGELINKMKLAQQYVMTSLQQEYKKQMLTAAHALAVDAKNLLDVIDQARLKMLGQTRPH
# T2 sequence (Q02763 776-1124): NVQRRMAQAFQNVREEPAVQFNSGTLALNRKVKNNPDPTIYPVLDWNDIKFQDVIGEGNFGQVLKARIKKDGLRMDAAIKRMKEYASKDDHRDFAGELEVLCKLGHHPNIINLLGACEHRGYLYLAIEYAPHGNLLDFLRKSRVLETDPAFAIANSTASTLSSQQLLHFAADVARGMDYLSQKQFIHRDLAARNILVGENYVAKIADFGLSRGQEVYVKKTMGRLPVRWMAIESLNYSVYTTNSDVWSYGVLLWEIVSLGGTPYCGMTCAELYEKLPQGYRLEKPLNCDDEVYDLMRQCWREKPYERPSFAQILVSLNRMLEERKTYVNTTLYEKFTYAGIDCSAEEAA
Compound,inhibition at 30 µM (human FAK) [%],inhibition at 10 µM (human Tie2) [%],inhibition at 10 µM (human FAK) [%],melting point [°C],SRC % inhib at 10 μM (c-Src protein) [%]
"CS(=O)(=O)c1ccccc1S(=O)(=O)Nc1ccc2[nH]nc(Cl)c2c1 [Example 1, N-(3-Chloro-1H-indazol-5-yl)-2-methylsulfonylbenzenesulfonamide]",70,18,,,
"O=S(=O)(Nc1ccc2[nH]nc(Cl)c2c1)c1cccc(F)c1 [Example 3, N-(3-Chloro-1H-indazol-5-yl)-3-fluorobenzenesulfonamide]",71,15,,,
"O=S(=O)(Nc1ccc2[nH]nc(-c3ccccc3)c2c1)c1cccc(F)c1 [Example 6, 3-Fluoro-N-(3-phenyl-1H-indazol-5-yl)benzenesulfonamide]",,74,82,200,55
"CS(=O)(=O)c1ccccc1S(=O)(=O)Nc1ccc2[nH]nc(-c3ccccc3)c2c1 [Example 7, 2-Methylsulfonyl-N-(3-phenyl-1H-indazol-5-yl)benzenesulfonamide]",,86,89,223,89
"O=S(=O)(Nc1ccc2[nH]nc(-c3ccccc3)c2c1)c1ccc(Cl)c(Cl)c1 [Example 8, 3,4-Dichloro-N-(3-phenyl-1H-indazol-5-yl)benzenesulfonamide]",76,56,,216,
"Cc1n[nH]c2ccc(NS(=O)(=O)c3cccc(F)c3)cc12 [Example 9, 3-Fluoro-N-(3-methyl-1H-indazol-5-yl)benzenesulfonamide]",68,29,,120,
"Cc1n[nH]c2ccc(NS(=O)(=O)c3ccccc3S(C)(=O)=O)cc12 [Example 10, 2-Methylsulfonyl-N-(3-methyl-1H-indazol-5-yl)benzenesulfonamide]",66,33,,,
"CS(=O)(=O)c1ccccc1S(=O)(=O)Nc1ccc2[nH]ncc2c1 [Example 13, 2-Methylsulfonyl-N-(1H-indazol-5-yl)benzenesulfonamide]",83,22,,245,
"CS(=O)(=O)c1ccccc1S(=O)(=O)Nc1ccc2[nH]nc(-c3ccc(Cl)cc3)c2c1 [Example 30, N-[3-(4-Chlorophenyl)-1H-indazol-5-yl]-2-methylsulfonylbenzenesulfonamide]",,,88,242,72
"CS(=O)(=O)c1ccccc1S(=O)(=O)Nc1ccc2[nH]nc(-c3ccc[nH]3)c2c1 [Example 60, 2-Methylsulfonyl-N-[3-(1H-pyrrol-2-yl)-1H-indazol-5-yl]benzenesulfonamide]",,,99,255,98
"CS(=O)(=O)c1ccccc1S(=O)(=O)Nc1ccc2[nH]nc(-c3cccc(N)c3)c2c1 [Example 62, N-[3-(3-Aminophenyl)-1H-indazol-5-yl]-2-methylsulfonylbenzenesulfonamide]",,,99,220,95
"CS(=O)(=O)c1ccccc1S(=O)(=O)Nc1ccc2[nH]nc(-c3cc4ccccc4s3)c2c1 [Example 65, N-(3-Benzo[b]thiophen-2-yl-1H-indazol-5-yl)-2-methylsulfonylbenzenesulfonamide]",,,86,270,96
"O=[N+]([O-])c1ccccc1S(=O)(=O)Nc1ccc2[nH]nc(-c3ccccc3)c2c1 [Example 113, 2-Nitro-N-(3-phenyl-1H-indazol-5-yl)benzenesulfonamide]",,,73,,23
"O=S(=O)(Nc1ccc2[nH]nc(-c3ccccc3)c2c1)c1ccc(F)cc1 [Example 117, 4-Fluoro-N-(3-phenyl-1H-indazol-5-yl)-benzenesulfonamide]",,,53,,39
"COc1ccc(OC)c(S(=O)(=O)Nc2ccc3[nH]nc(-c4ccccc4)c3c2)c1 [Example 131, 2,5-Dimethoxy-N-(3-phenyl-1H-indazol-5-yl)-benzenesulfonamide]",,,64,,36
"Cc1ccccc1S(=O)(=O)Nc1ccc2[nH]nc(-c3ccccc3)c2c1 [Example 132, 2-Methyl-N-(3-phenyl-1H-indazol-5-yl)-benzenesulfonamide]",,,51,,18
"O=C(O)c1cccc(S(=O)(=O)Nc2ccc3[nH]nc(-c4ccccc4)c3c2)c1 [Example 133, 3-(3-Phenyl-1H-indazol-5-ylsulfamoyl)benzoic acid]",,,12,,24
"O=S(=O)(Nc1ccc2[nH]nc(-c3ccccc3)c2c1)c1ccccc1F [Example 134, 2-Fluoro-N-(3-phenyl-1H-indazol-5-yl)-benzenesulfonamide]",,,67,,44
"O=S(=O)(Nc1ccc2[nH]nc(-c3ccccc3)c2c1)c1ccc(Cl)s1 [Example 135, 5-Chloro-N-(3-phenyl-1H-indazol-5-yl)thiophene-2-sulfonamide]",,,50,,54
"Cc1cccc(S(=O)(=O)Nc2ccc3[nH]nc(-c4ccccc4)c3c2)c1 [Example 138, 3-Methyl-N-(3-phenyl-1H-indazol-5-yl)-benzenesulfonamide]",,,47,,39
"O=S(=O)(Nc1ccc2[nH]nc(-c3ccccc3)c2c1)c1ccc(F)c(F)c1 [Example 152, 3,4-Difluoro-N-(3-phenyl-1H-indazol-5-yl)-benzenesulfonamide]",,,71,,43
"N#Cc1cccc(S(=O)(=O)Nc2ccc3[nH]nc(-c4ccccc4)c3c2)c1 [Example 154, 3-Cyano-N-(3-phenyl-1H-indazol-5-yl)-benzenesulfonamide]",,,54,,44
"COc1cccc(S(=O)(=O)Nc2ccc3[nH]nc(-c4ccccc4)c3c2)c1 [Example 156, 3-Methoxy-N-(3-phenyl-1H-indazol-5-yl)-benzenesulfonamide]",,,56,,57
"O=S(=O)(Nc1ccc2[nH]nc(-c3ccccc3)c2c1)c1cc(F)cc(F)c1 [Example 158, 3,5-Difluoro-N-(3-phenyl-1H-indazol-5-yl)-benzenesulfonamide]",,,95,,75
